The source of these data is patent US10233173B2, “Substituted 1,2,3-triazoles as NR2B-selective NMDA modulators” (JANSSEN PHARMACEUTICA NV, priority 2016, dated 2019).

Where only a bound is given, the exact number is not on record here.

Chain of human GluN1/GluN2B NMDA receptors (Q13224 27-1484, other chains not shown): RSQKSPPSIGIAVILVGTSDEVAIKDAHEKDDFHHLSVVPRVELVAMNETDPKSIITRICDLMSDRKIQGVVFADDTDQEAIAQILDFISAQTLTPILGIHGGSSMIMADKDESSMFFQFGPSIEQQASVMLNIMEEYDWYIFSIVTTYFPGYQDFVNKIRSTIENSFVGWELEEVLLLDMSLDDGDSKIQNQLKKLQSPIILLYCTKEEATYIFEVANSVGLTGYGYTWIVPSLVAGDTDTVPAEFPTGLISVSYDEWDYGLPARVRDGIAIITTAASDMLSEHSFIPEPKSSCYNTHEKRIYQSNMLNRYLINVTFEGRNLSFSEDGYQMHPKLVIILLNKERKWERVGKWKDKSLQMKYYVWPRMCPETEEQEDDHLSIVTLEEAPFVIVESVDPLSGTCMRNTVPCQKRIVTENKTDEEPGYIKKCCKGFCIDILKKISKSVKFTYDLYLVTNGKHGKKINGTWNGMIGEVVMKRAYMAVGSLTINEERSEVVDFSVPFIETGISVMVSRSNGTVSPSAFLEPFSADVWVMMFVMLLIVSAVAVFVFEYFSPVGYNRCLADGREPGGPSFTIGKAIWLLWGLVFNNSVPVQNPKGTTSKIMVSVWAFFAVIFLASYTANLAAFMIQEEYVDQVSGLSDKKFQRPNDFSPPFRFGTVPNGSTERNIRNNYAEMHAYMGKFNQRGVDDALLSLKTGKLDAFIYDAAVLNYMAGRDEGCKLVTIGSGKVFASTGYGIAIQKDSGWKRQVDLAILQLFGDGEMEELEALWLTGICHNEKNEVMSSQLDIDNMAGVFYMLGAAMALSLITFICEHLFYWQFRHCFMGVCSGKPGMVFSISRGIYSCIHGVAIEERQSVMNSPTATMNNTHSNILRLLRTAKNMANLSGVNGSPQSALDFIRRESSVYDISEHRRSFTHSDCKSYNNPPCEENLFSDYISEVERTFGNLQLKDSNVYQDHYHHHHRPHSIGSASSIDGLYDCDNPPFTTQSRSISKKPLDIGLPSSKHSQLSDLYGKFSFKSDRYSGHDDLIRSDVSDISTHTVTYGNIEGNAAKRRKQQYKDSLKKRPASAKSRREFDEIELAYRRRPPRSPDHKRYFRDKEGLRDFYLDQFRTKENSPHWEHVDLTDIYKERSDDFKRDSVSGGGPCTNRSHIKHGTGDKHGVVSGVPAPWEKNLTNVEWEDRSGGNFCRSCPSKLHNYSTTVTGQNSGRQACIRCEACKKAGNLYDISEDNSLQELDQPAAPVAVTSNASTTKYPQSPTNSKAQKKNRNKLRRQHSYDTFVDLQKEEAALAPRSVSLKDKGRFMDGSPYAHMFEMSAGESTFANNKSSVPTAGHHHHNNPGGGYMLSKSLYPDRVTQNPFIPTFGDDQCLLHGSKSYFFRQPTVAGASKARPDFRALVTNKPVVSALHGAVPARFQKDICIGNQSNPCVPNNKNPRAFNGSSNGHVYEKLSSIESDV

This assay deals with human GluN1/GluN2B NMDA receptors (Homo sapiens, UniProt Q05586+Q13224). As to the kind of experiment: Cell-based calcium flux (FLIPR) assay on cloned human NR1/NR2B ion channels expressed in mammalian cells. The note with it: standard assay; glutamate at ~EC80; FLIPR calcium flux. An outline of the steps:
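Calcium influx followed by FLIPR fluorescence after 5 min compound exposure and a further 5 min co-agonist challenge: 10 μM glycine with glutamate at ~EC80 (standard) or EC40 (HTS).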
A general note: Calcium assays in cells follow changes in intracellular calcium, usually with a dye or a luminescent sensor.
In general, IC50 refers to the concentration that inhibits the measured activity by half. For the compound `Cc1cnc(OCc2cn(-c3ccc(Cl)c(C(F)F)c3)nn2)nc1N(C)C` [Example 633, 2-[[1-[4-Chloro-3-(difluoromethyl)phenyl]triazol-4-yl]methoxy]-N,N,5-trimethyl-pyrimidin-4-amine], the IC50 stood at 0.057 µM.
As for `FC(F)c1cc(-n2cc(COc3nccc(N4CCCC4)n3)nn2)ccc1Cl` [Example 634, 2-[[1-[4-Chloro-3-(difluoromethyl)phenyl]triazol-4-yl]methoxy]-4-pyrrolidin-1-yl-pyrimidine], the IC50 is 0.012 µM.
For the compound `FC(F)c1cc(-n2cc(COc3nccc(N4CCCCC4)n3)nn2)ccc1Cl` [Example 635, 2-[[1-[4-Chloro-3-(difluoromethyl)phenyl]triazol-4-yl]methoxy]-4-(1-piperidyl)pyrimidine], the 50% inhibitory concentration (IC50) stood at 0.169 µM.
As for `FCCOc1cnc(OCc2cn(-c3ccc(Cl)c(C(F)F)c3)nn2)nc1` [Example 636, 2-[[1-[4-Chloro-3-(difluoromethyl)phenyl]triazol-4-yl]methoxy]-5-(2-fluoroethoxy)pyrimidine], the IC50 worked out at 0.01 µM.
`FCCCc1cnc(OCc2cn(-c3ccc(Cl)c(C(F)F)c3)nn2)nc1` [Example 637, 2-[[1-[4-Chloro-3-(difluoromethyl)phenyl]triazol-4-yl]methoxy]-5-(3-fluoropropyl)pyrimidine]: the IC50 was 0.011 µM.
Consider `Cc1cnc(OCc2cn(-c3ccc(N4CCC4)c(C(F)F)c3)nn2)nc1` [Example 638, 2-((1-(4-(Azetidin-1-yl)-3-(difluoromethyl)phenyl)-1H-1,2,3-triazol-4-yl)methoxy)-5-methylpyrimidine], for which the IC50 was found to be 0.511 µM.
For `Cc1c(F)ccc(-n2cc(COc3ncc(C(C)C)cn3)nn2)c1F` [Example 639, 2-[[1-(2,4-Difluoro-3-methyl-phenyl)triazol-4-yl]methoxy]-5-isopropyl-pyrimidine], the IC50 was found to be 0.052 µM.
The figure for `Cc1c(F)ccc(-n2cc(COc3nccc(C(C)C)n3)nn2)c1F` [Example 640, 2-[[1-(2,4-Difluoro-3-methyl-phenyl)triazol-4-yl]methoxy]-4-isopropyl-pyrimidine] is 1.98 µM; for `Cc1c(F)ccc(-n2cc(COc3ncc(C(F)F)cn3)nn2)c1F` [Example 641, 5-(Difluoromethyl)-2-[[1-(2,4-difluoro-3-methyl-phenyl)triazol-4-yl]methoxy]pyrimidine] it is 0.111 µM.
For the compound `Cc1c(F)ccc(-n2cc(COc3nccc(C(F)F)n3)nn2)c1F` [Example 642, 4-(Difluoromethyl)-2-[[1-(2,4-difluoro-3-methyl-phenyl)triazol-4-yl]methoxy]pyrimidine], the 50% inhibitory concentration (IC50) is 2.21 µM.
With `Cc1c(F)ccc(-n2cc(COc3ncc(C(F)(F)F)cn3)nn2)c1F` [Example 643, 2-[[1-(2,4-Difluoro-3-methyl-phenyl)triazol-4-yl]methoxy]-5-(trifluoromethyl)pyrimidine], the IC50 was determined as 0.2 µM.
The figure for `Cc1c(F)ccc(-n2cc(COc3ncc(C(C)(C)O)cn3)nn2)c1F` [Example 644, 2-[2-[[1-(2,4-Difluoro-3-methyl-phenyl)triazol-4-yl]methoxy]pyrimidin-5-yl]propan-2-ol] is 0.967 µM; for `COCc1ccnc(OCc2cn(-c3ccc(F)c(C)c3F)nn2)n1` [Example 645, 2-[[1-(2,4-Difluoro-3-methyl-phenyl)triazol-4-yl]methoxy]-4-(methoxymethyl)pyrimidine] it is 0.799 µM.
The figure for `Cc1c(F)ccc(-n2cc(COc3ncc(OC(F)F)cn3)nn2)c1F` [Example 646, 5-(Difluoromethoxy)-2-[[1-(2,4-difluoro-3-methyl-phenyl)triazol-4-yl]methoxy]pyrimidine] is 0.099 µM; for `Cc1c(F)ccc(-n2cc(COc3ncc(C4CC4)cn3)nn2)c1F` [Example 647, 5-Cyclopropyl-2-[[1-(2,4-difluoro-3-methyl-phenyl)triazol-4-yl]methoxy]pyrimidine] it is 0.034 µM; for `Cc1c(F)ccc(-n2cc(COc3nccc(C4CC4)n3)nn2)c1F` [Example 648, 4-Cyclopropyl-2-[[1-(2,4-difluoro-3-methyl-phenyl)triazol-4-yl]methoxy]pyrimidine] it is 0.592 µM.
For the compound `Cc1nc(OCc2cn(-c3ccc(F)c(C)c3F)nn2)ncc1F` [Example 649, 2-[[1-(2,4-Difluoro-3-methyl-phenyl)triazol-4-yl]methoxy]-5-fluoro-4-methyl-pyrimidine], the 50% inhibitory concentration (IC50) turned out to be 0.152 µM.
With `Cc1nc(OCc2cn(-c3ccc(F)c(C)c3F)nn2)ncc1Cl` [Example 650, 5-Chloro-2-[[1-(2,4-difluoro-3-methyl-phenyl)triazol-4-yl]methoxy]-4-methyl-pyrimidine], the IC50 was 0.005 µM.
The value for `Cc1cnc(OCc2cn(-c3ccc(F)c(C)c3F)nn2)nc1N` [Example 651, 2-[[1-(2,4-Difluoro-3-methyl-phenyl)triazol-4-yl]methoxy]-5-methyl-pyrimidin-4-amine] was 0.262 µM; that for `Fc1ccc(-n2cc(COc3ncc(C(F)(F)F)cn3)nn2)c(F)c1C(F)F` [Example 652, 2-[[1-[3-(Difluoromethyl)-2,4-difluoro-phenyl]triazol-4-yl]methoxy]-5-(trifluoromethyl)pyrimidine] was 0.112 µM.
As to `Cc1cc(-n2cc(COc3ncc(Cl)cn3)nn2)c(F)cc1F` [Example 653, 5-Chloro-2-[[1-(2,4-difluoro-5-methyl-phenyl)triazol-4-yl]methoxy]pyrimidine], the half-maximal inhibitory concentration (IC50) is 1.49 µM.
With `Cc1cnc(OCc2cn(-c3cc(C)c(F)cc3F)nn2)nc1` [Example 654, 2-[[1-(2,4-Difluoro-5-methyl-phenyl)triazol-4-yl]methoxy]-5-methyl-pyrimidine], the concentration for half-maximal inhibition (IC50) was 0.979 µM.
Take `CCc1cnc(OCc2cn(-c3cc(C)c(F)cc3F)nn2)nc1` [Example 655, 2-[[1-(2,4-Difluoro-5-methyl-phenyl)triazol-4-yl]methoxy]-5-ethyl-pyrimidine]: the IC50 is 0.507 µM.
The figure for `Cc1cc(-n2cc(COc3ncc(C(F)F)cn3)nn2)c(F)cc1F` [Example 656, 5-(Difluoromethyl)-2-[[1-(2,4-difluoro-5-methyl-phenyl)triazol-4-yl]methoxy]pyrimidine] is 1.51 µM; for `Cc1cc(-n2cc(COc3ncc(Cl)c(C)n3)nn2)c(F)cc1F` [Example 657, 5-Chloro-2-[[1-(2,4-difluoro-5-methyl-phenyl)triazol-4-yl]methoxy]-4-methyl-pyrimidine] it is 0.781 µM.
Consider `Cc1cc(-n2cc(COc3ncc(C4CC4)cn3)nn2)c(F)cc1F` [Example 658, 5-Cyclopropyl-2-[[1-(2,4-difluoro-5-methyl-phenyl)triazol-4-yl]methoxy]pyrimidine], for which the IC50 came to 0.424 µM.
On to `Cc1cccc(-n2cc(COc3ncc(Cl)cn3)nn2)n1` [Example 659, 5-Chloro-2-[[1-(6-methyl-2-pyridyl)triazol-4-yl]methoxy]pyrimidine], for which the IC50 was over 2.99 µM.
`CCc1cnc(OCc2cn(-c3cccc(C)n3)nn2)nc1` [Example 660, 5-Ethyl-2-[[1-(6-methyl-2-pyridyl)triazol-4-yl]methoxy]pyrimidine]: the IC50 is over 2.99 µM.
The figure for `Cc1cccc(-n2cc(COc3ncc(Cl)c(C)n3)nn2)n1` [Example 661, 5-Chloro-4-methyl-2-[[1-(6-methyl-2-pyridyl)triazol-4-yl]methoxy]pyrimidine] is over 2.99 µM.
`Cc1cnc(OCc2cn(-c3cc(C)ccn3)nn2)nc1` [Example 662, 5-Methyl-2-[[1-(4-methyl-2-pyridyl)triazol-4-yl]methoxy]pyrimidine]: the IC50 is over 2.99 µM.
The figure for `CCc1cnc(OCc2cn(-c3cc(C)ccn3)nn2)nc1` [Example 663, 5-Ethyl-2-[[1-(4-methyl-2-pyridyl)triazol-4-yl]methoxy]pyrimidine] is 2.45 µM.
The figure for `CCc1cnc(OCc2cn(-c3ccnc(C)c3)nn2)nc1` [Example 664, 5-Ethyl-2-[[1-(2-methyl-4-pyridyl)triazol-4-yl]methoxy]pyrimidine] is 0.169 µM.
For the compound `CCc1cnc(OCc2cn(-c3ccnc(Br)c3)nn2)nc1` [Example 665, 2-[[1-(2-Bromo-4-pyridyl)triazol-4-yl]methoxy]-5-ethyl-pyrimidine], the concentration for half-maximal inhibition (IC50) amounted to 0.261 µM.
Turning to `Cc1cnc(OCc2cn(-c3ccnc(C(F)(F)F)c3)nn2)nc1` [Example 666, 5-Methyl-2-[[1-[2-(trifluoromethyl)-4-pyridyl]triazol-4-yl]methoxy]pyrimidine], the IC50 was 0.668 µM.
Consider `CCc1cnc(OCc2cn(-c3ccnc(C(F)(F)F)c3)nn2)nc1` [Example 667, 5-Ethyl-2-[[1-[2-(trifluoromethyl)-4-pyridyl]triazol-4-yl]methoxy]pyrimidine], for which the IC50 worked out at 0.184 µM.
Consider `Cc1nc(OCc2cn(-c3ccc(C(F)(F)F)s3)nn2)ncc1F` [Example 668, 5-Fluoro-4-methyl-2-((1-(5-(trifluoromethyl)thiophen-2-yl)-1H-1,2,3-triazol-4-yl)methoxy)pyrimidine], for which the half-maximal inhibitory concentration (IC50) was found to be 0.008 µM.
Take `COc1cnc(OCc2cn(-c3ccc(C(F)(F)F)s3)nn2)nc1` [Example 669, 5-Methoxy-2-((1-(5-(trifluoromethyl)thiophen-2-yl)-1H-1,2,3-triazol-4-yl)methoxy)pyrimidine]: the concentration for half-maximal inhibition (IC50) is 0.004 µM.
Regarding `FC(F)(F)c1cnc(OCc2cn(-c3ccc(C(F)(F)F)s3)nn2)nc1` [Example 670, 5-(Trifluoromethyl)-2-((1-(5-(trifluoromethyl)thiophen-2-yl)-1H-1,2,3-triazol-4-yl)methoxy)pyrimidine], the IC50 was determined as 0.063 µM.
The value for `Fc1ccc(-n2cc(COc3nccc(NC4COC4)n3)nn2)cc1OC(F)F` [Example 671, 2-((1-(3-(Difluoromethoxy)-4-fluorophenyl)-1H-1,2,3-triazol-4-yl)methoxy)-N-(oxetan-3-yl)pyrimidin-4-amine] was 0.126 µM; that for `Fc1ccc(-n2cc(COc3nccc(-c4ccc[nH]4)n3)nn2)cc1OC(F)F` [Example 681, 2-((1-(3-(Difluoromethoxy)-4-fluorophenyl)-1H-1,2,3-triazol-4-yl)methoxy)-4-(1H-pyrrol-2-yl)pyrimidine] was 0.681 µM.
